Results as given in EP0055702B1, “Antithrombotic treatment” (priority 1980, dated 1982).
Read-outs that look alike come from different tables or passages of the source.

Assays:
[1] = PT of coded and various agents, Example 6; format: biochemical
Text: (§1) A variety of agents were coded and evaluated under a code designation. Among these compounds, thiouracil, mercaptosuccinic acid, thiosemicarbazide, phenothiazine and sodium thiosulphate were included, so as to compare sodium bisulphite with certain compounds mentioned in USP 4,148,855.
(§2) After determination of PT and PTT values, the coded compounds were decoded.
(§3) The results are shown in Table V, where mean values of 5 replications in each case are reported. […] This procedure was repeated with some additional compounds on two different days using a different control on each day.

[2] = PTT of coded and various agents, Example 6; format: biochemical; settings: for PTT: Table V, coded agents 0.5 mg/ml, Control 43.38
Text: as §1, §2, §3

[3] = system: human, rabbit and rat plasma; test: PT (prothrombin time) in plasma in vitro, Example 3; format: biochemical; settings: for PT (seconds) Exp. 1 A / PT (seconds) Exp.2 A: active agent 0.5/ml, control; for prolongation of PT: 0.5 mg/ml, human, rabbit and rat plasma in vitro, dose-related
Text: (§4) Sodium, potassium and ammonium bisulphites are found to prolong PT and PTT in a dose-related fashion.
(§5) The evaluation procedure used is that described in "Human Blood Coagulation, Haemostasis and Thrombosis", edited by Rosemary Biggs, published by Blackwell Scientific Publications, Oxford, England (2nd Edition), pages 670-705, 1976.

[4] = system: human, rabbit and rat plasma; test: PTT (partial thromboplastin time) in plasma in vitro, Example 3; format: biochemical; settings: for PTT (seconds) Exp. 1 A / PTT (seconds) Exp. 2 A: active agent 0.5/ml, control; for prolongation of PTT: 0.5 mg/ml, human, rabbit and rat plasma in vitro, dose-related
Text: as §4, §5

[5] = system: celite-fibrinogen suspension; settings: Chao, cited from earlier work
[6] = system: platelet-fibrinogen preparations; settings: 10 to 50 mM; Chao; cited from earlier work
dog plasma = settings: 10 mM, Elias; cited from earlier work
thrombin = settings: Elias; cited from earlier work
[7] = rabbits; cited from earlier work
blood coagulation time = settings: 10 mM; Kikugawa; cited from earlier work
[8] = coded compounds after decoding, in vitro
[9] = Table V, coded agents 0.5 mg/ml, Control 12.92

Compound: O=S(=O)(O)CO [SO3, Sodium formaldehyde bisulphite, reference compound]
- effect on PT values [1, 8]: effected in increasing PT and PTT values
- effect on PTT values [2, 8]: effected in increasing PT and PTT values

Compound: Sodium sulphite
- PT (seconds) Exp. 1 A ([3]; Test sequence A): 16.2 s
- PT (seconds) Exp.2 A ([3]; Test sequence A): 17.7 s
- PT (seconds) Exp. 1 A ([3]; Test sequence B): 16.8 s
- PT (seconds) Exp.2 A ([3]; Test sequence B): 17.7 s
- PTT (seconds) Exp. 1 A ([4]; Test sequence A): 66.1 s
- PTT (seconds) Exp. 2 A ([4]; Test sequence A): 80.7 s
- PTT (seconds) Exp. 1 A ([4]; Test sequence B): 74.8 s
- PTT (seconds) Exp. 2 A ([4]; Test sequence B): 82.1 s
- PT [1]: 16.38 s
- PT [1, 9]: 16.14 s
- PTT [2]: 64.62 s
- inhibition of thrombin-induced light transmission increase (LTI) ([5]; 10 mM): partial inhibition
- inhibition of thrombin-induced light transmission increase (LTI) ([5]; 50 mM): complete inhibition
- effect on the first wave of platelet-fibrinogen preparations [6]: no effect
- increase of thrombin time (dog plasma): about 38%
- inhibitory effect on TAME esterolytic activity of thrombin (thrombin): No inhibitory effect

Compound: ammonium bisulphite
- prolongation of PT [3]: significantly prolong
- prolongation of PTT [4]: significantly prolong

Compound: Ammonium sulphite
- PT (seconds) Exp. 1 A ([3]; Test sequence A): 14.7 s
- PT (seconds) Exp.2 A ([3]; Test sequence A): 16.9 s
- PTT (seconds) Exp. 1 A ([4]; Test sequence A): 56.5 s
- PTT (seconds) Exp. 2 A ([4]; Test sequence A): 65.2 s
- PT [1]: 16.08 s

Compound: potassium bisulphite
- prolongation of PT [3]: significantly prolong
- prolongation of PTT [4]: significantly prolong

Compound: sodium bisulphite/sulphite
- LD50 [7]: 65 mg/kg
- effect on blood coagulation time (blood coagulation time): no effect

Compound: O=S([O-])S(=O)(=O)[O-].[Na+].[Na+] [Sodium metabisulphite]
- PTT (seconds) Exp. 2 A ([4]; Test sequence A): 80.3 s

Compound: Sodium thiosulphate [SI6, reference compound]
- PT [1]: 13.5 s

Compound: O=S([O-])S(=O)(=O)[O-].[K+].[K+] [Potassium metabisulphite]
- PT (seconds) Exp.2 A ([3]; Test sequence A): 22.0 s

Compound: Dihydroxymalcic acid 2 H2O [Solution A3, reference compound]
- PT [1, 9]: 14.95 s
- PTT [2]: 53.00 s
